Reference: patent publication US7250551B2, “Transgenic mice expressing inducible human p25” (President and Fellows of Harvard College, priority 2002, dated 2007)

Key:
[1] = test system: secreted Aβ(1-40) and Aβ(1-42); assay: Aβ secreted by rat primary cortical neurons infected with HSV expressing WT APP, sandwich ELISA; type: cell-based; settings: rat cortical neurons expressing WT APP via HSV, inhibitor 8 hours, dose-dependent, P<0.05
[2] = test system: T668 phosphorylation on APP; assay: Ionomycin-induced T668 phosphorylation of APP in primary hippocampal neurons, Western blot; type: cell-based, rat; settings: for T668 phosphorylation induced by ionomycin: 20 μM inhibitor 15 min before 4 μM ionomycin for 5 hours
Protocol: Primary hippocampal neurons were cultured as described from E18 rat embryos (Niethammer et al. (2000) Neuron 28:697). 8-day old cultures were treated with different concentrations of ionomycin (Calbiochem). In some cases, hippocampal neurons were incubated with either 20 μM roscovitine (Calbiochem) or 20 μM butyrolactone (Calbiochem) for 15 min at 37° C. before being treated with 4 μM ionomycin for 5 hours. Neurons were lysed in SDS sample buffer and lysates were separated on a 12% acrylamide gel and analyzed by Western blotting.
To determine if neurotoxic conditions influence APP phosphorylation, primary hippocampal neurons were treated with ionomycin.

[3] = test system: T668 phosphorylation of APP; assay: T668 phosphorylation of full length APP in HSV-APP infected rat cortical neurons, Western blot; settings: rat cortical neurons expressing WT APP via HSV, inhibitor 8 hours
[4] = test system: rat cortical neurons; assay: MTT cell viability of rat cortical neurons expressing WT APP; type: cell-based; settings: rat cortical neurons expressing WT APP via HSV
[5] = test system: secreted Aβ(1-40) and Aβ(1-42); assay: Aβ secreted into media by primary neurons from APP(Sw) Tg mice, sandwich ELISA; type: cell-based, mouse; settings: roscovitine 8 hours
Protocol: FIGS. 7A-7F depict that inhibition of Cdk5 reduces Aβ generation in a Tg mouse model of AD. (A) Inhibition of Cdk5 lead to a decrease in Aβ secretion. Primary mixed hippocampal and cortical neurons were cultured from E17 APP (Swedish) (Sw) Tg mice. 4-day-cultured neurons were treated with the indicated concentration of roscovitine for 8 hours and assayed for the level of Aβ(1-40) secreted into the media. The level of secreted Aβ(1-40) was normalized against the untreated control. The data are the averages (±s.d.) from four independent experiments. (B) As in (A), but the level of Aβ(1-42) in the media was assayed instead. (C) Cell viability was measured using the MTT assay. Cell viability was normalized against the untreated control. […] (F) Cell viability was measured using the MTT assay.
Primary cortical neurons were cultured from E15 APP(Sw) Tg mice (Tg2576) (Hsiao et al. (1996) Science 274:99) as described (Niethammer et al. (2000) Neuron 28:697). […] Aβ secreted into the media from each culture was analyzed by sandwich ELISA (Biosource) according to specifications by the manufacturer. Cell viability was measured by treating neurons with MTT (Sigma) at a final concentration of 0.5 mg/ml for 1 hour. After MTT treatment, cell medium was replaced with DMSO and the optical density of at 495 nm was determined.

[6] = test system: APP subcellular distribution; assay: Distribution of WT APP in iodixanol step gradient of primary cortical neuron homogenates; type: cell-based, rat; settings: roscovitine 15 μM for 8 hr (FIG. 18D)
Source text: FIGS. 18A-18D depict co-fractionation of T668 phosphorylated APP with BACE1 and endosome markers. (A) Adult mouse brain lysate was fractionated through an iodixanol step gradient. […] (B) Quantification of protein distribution of A (fractions 1-20) showing that full length P-APP co-fractionates with BACE1. (C) Distribution of WT and T668A APP, expressed in rat primary cortical neurons using recombinant herpes simplex virus (HSV), in an iodixanol step gradient. The distribution pattern of BACE1 resembled that of WT APP. (D) Distribution of WT APP in an iodixanol step gradient after roscovitine treatment (15 μM for 8 hr).
FIGS. 25A-25B depict immunoblots showing distribution of APP and BACE1 in iodixanol step gradient. […] Twenty hours post infection, cell homogenates were fractionated through an iodixanol step gradient and the distributions of APP and BACE1 were analyzed. […] Cell homogenates were fractionated and the distributions of APP and BACE1 were analyzed by Western blot analysis.
To assess the significance of T668 phosphorylation in APP subcellular localization, WT APP and the T668A mutant APP were introduced into primary cortical neurons using recombinant herpes simplex virus (HSV). Twenty hours post infection, cell homogenates were fractionated through iodixanol step gradient and the distribution of APP in the collected fractions was analyzed. […]

[7] = test system: primary neurons from APP(Sw) Tg mice; assay: MTT cell viability of primary neurons from APP(Sw) Tg mice; type: cell-based, mouse; settings: roscovitine 8 hours
Protocol: Primary cortical neurons were cultured from E15 APP(Sw) Tg mice (Tg2576) (Hsiao et al. (1996) Science 274:99) as described (Niethammer et al. (2000) Neuron 28:697). 4-day-cultured neurons were replaced with new media (DMEM/F 12) and treated with different concentrations of roscovitine (Calbiochem) for 8 hours, or with butyrolactone (Calbiochem) for 16 hours. Aβ secreted into the media from each culture was analyzed by sandwich ELISA (Biosource) according to specifications by the manufacturer. Cell viability was measured by treating neurons with MTT (Sigma) at a final concentration of 0.5 mg/ml for 1 hour. After MTT treatment, cell medium was replaced with DMSO and the optical density of at 495 nm was determined.

Structure (SMILES)	levels of secreted Aβ(1-40) [1]	levels of secreted Aβ(1-42) [1]	T668 phosphorylation induced by ionomycin [2]	T668 phosphorylation [3]	cell viability, MTT assay [4]	T668 phosphorylation on APP ([2]; primary hippocampal neurons treated with ionomycin)	secreted beta-amyloid (1-40) (Aβ(1-40)) levels [5]	secreted beta-amyloid (1-42) (Aβ(1-42)) levels [5]	APP distribution in iodixanol step gradient [6]	cell viability, MTT assay [7]
O=C1CCCO1 [butyrolactone]	significantly reduced	significantly reduced	inhibited	substantial decreases	not due to a decline in cell viability					
C[C@H](CCC(=O)O)C[C@H](C)C[C@H](C)C(=O)/C=C(\O)[C@H](C)C[C@H](C)C/C=C/[C@@H](C)[C@@H](O)[C@@H](C)[C@@H](O)C[C@@H]1CC[C@@](C)([C@H]2CC[C@@](C)([C@@H](C)O)O2)O1 [Ionomycin, ionomycin]						marked elevation				
CC[C@H](CO)Nc1nc(NCc2ccccc2)c2ncn(C(C)C)c2n1 [roscovitine]	significantly reduced	significantly reduced	inhibited	substantial decreases	not due to a decline in cell viability		dose-dependent decrease	also reduced	shifted to heavier membrane fractions	not due to a decline in cell viability
